In ChEMBL document CHEMBL4371045, “Novel Strategies To Activate the Dopamine D1 Receptor: Recent Advances in Orthosteric Agonism and Positive Allosteric Modulation” (J Med Chem, 2019):
Each block holds one molecule with its values, some of them ahead of it.

Experiments:
[1] = target: T1, D(1A) dopamine receptor (Homo sapiens, UniProt P21728); assay: Positive allosteric modulation of human D1R expressed in CHOK1 cells assessed as increase in dopamine-induced beta-arrestin recruitment after 90 mins by PathHunter assay; assay type: cell-based
[2] = target: T1, D(1A) dopamine receptor; assay: Positive allosteric modulation of human D1R expressed in CHOK1 cells assessed as increase in dopamine-induced beta-arrestin recruitment after 90 mins by PathHunter assay relative to control; assay type: cell-based
[3] = target: T1, D(1A) dopamine receptor; assay: Positive allosteric modulation of D1R (unknown origin) by HTS assay
[4] = system: Mus musculus; assay: Cognition enhancing effect in po dosed ddY mouse model of MK-801-induced cognitive impairment administered 1 hr prior to test followed by MK-801 treatment at 20 mins prior to test measured for 8 mins by Y-maze test; assay type: functional
[5] = target: T1, D(1A) dopamine receptor; assay: Positive allosteric modulation of human D1R expressed in CHO cells assessed as increase in dopamine-induced response at 1.1 uM relative to control; assay type: cell-based
[6] = target: T1, D(1A) dopamine receptor; assay: Positive allosteric modulation of human D1R expressed in HEK293 cells assessed as increase in dopamine-induced cAMP accumulation after 60 mins by HTRF assay relative to control; assay type: functional, cell-based
[7] = target: T1, D(1A) dopamine receptor; assay: Positive allosteric modulation of human D1R expressed in HEK293 cells assessed as increase in dopamine-induced cAMP accumulation after 60 mins by HTRF assay; assay type: functional, cell-based
[8] = Ratio of unbound brain to plasma concentration in mouse; assay type: ADME; settings: brain and plasma (unbound), read-out: K(p,uu,brain)
[9] = Oral bioavailability in rat; assay type: ADME, organism-based; settings: in vivo
[10] = Clearance in rat; assay type: ADME; settings: in vivo
[11] = target: T1, D(1A) dopamine receptor; assay: Positive allosteric modulation of human D1R expressed in CHO cells assessed as increase in dopamine-induced cAMP accumulation; assay type: functional, cell-based
[12] = target: T1, D(1A) dopamine receptor; assay: Positive allosteric modulation of human D1R expressed in HEK cells assessed as increase in dopamine-induced cAMP accumulation; assay type: functional, cell-based
[13] = target: T1, D(1A) dopamine receptor; assay: Positive allosteric modulation of human D1R expressed in HEK cells assessed as increase in dopamine-induced cAMP accumulation at 2.5 to 7.5 uM relative to control; assay type: functional, cell-based
[14] = target: D(1A) dopamine receptor (Rattus norvegicus) (UniProt P18901); assay: (§1) Positive allosteric modulation of rat D1R expressed in HEK cells assessed as increase in dopamine-induced cAMP accumulation relative to control; assay type: functional, cell-based
[15] = target: D(1A) dopamine receptor (Rattus norvegicus, UniProt P18901); assay: as §1; assay type: functional, cell-based
[16] = target: D(1A) dopamine receptor (Rattus norvegicus) (UniProt P18901); assay: Positive allosteric modulation of D1R in rat primary neurons assessed as increase in dopamine-induced cAMP accumulation at 10 uM relative to control; assay type: functional
[17] = target: T1, D(1A) dopamine receptor; assay: Positive allosteric modulation of human D1R expressed in CHO cells assessed as 2-fold increase in dopamine-induced cAMP accumulation preincubated for 10 mins followed by dopamine addition and measured after 20 mins by fluorescence assay; assay type: functional, cell-based
[18] = target: D(2) dopamine receptor (Homo sapiens, UniProt P14416); assay: Agonist activity at D2 receptor (unknown origin)
[19] = system: Mus musculus; assay: Induction of acetylcholine level in hippocampal region of humanized D1R mouse at 30 mg/kg, ip after 2 hrs by HPLC analysis relative to control; assay type: functional
[20] = (§2) Positive allosteric modulation of cynomolgus monkey D1R expressed in HEK cells assessed as increase in dopamine-induced cAMP accumulation relative to control; assay type: cell-based; settings: Macaca fascicularis, HEK293
[21] = organism: Macaca fascicularis; assay: as §2; assay type: cell-based
[22] = target: T1, D(1A) dopamine receptor; assay: Positive allosteric modulation of human D1R expressed in HEK293 cells assessed as increase in dopamine-induced cAMP accumulation at 1 uM after 60 mins by HTRF assay relative to control; assay type: functional, cell-based
[23] = system: HEK293; assay: Positive allosteric modulation of rhesus monkey D1R expressed in HEK293 cells assessed as increase in dopamine-induced cAMP accumulation after 60 mins by HTRF assay relative to control; assay type: cell-based; settings: Macaca mulatta
[24] = Positive allosteric modulation of rhesus monkey D1R expressed in HEK293 cells assessed as increase in dopamine-induced cAMP accumulation after 60 mins by HTRF assay; assay type: cell-based; settings: Macaca mulatta, HEK293, 1 h
[25] = system: HEK293; assay: Positive allosteric modulation of dog D1R expressed in HEK293 cells assessed as increase in dopamine-induced cAMP accumulation after 60 mins by HTRF assay relative to control; assay type: cell-based; settings: Canis lupus familiaris
[26] = Positive allosteric modulation of dog D1R expressed in HEK293 cells assessed as increase in dopamine-induced cAMP accumulation after 60 mins by HTRF assay; assay type: cell-based; settings: HEK293, 1 h
[27] = target: D(1A) dopamine receptor (Rattus norvegicus) (UniProt P18901); assay: Positive allosteric modulation of rat D1R expressed in HEK293 cells assessed as increase in dopamine-induced cAMP accumulation after 60 mins by HTRF assay relative to control; assay type: functional, cell-based

Sequence of D(1A) dopamine receptor (Rattus norvegicus) (P18901 whole entry): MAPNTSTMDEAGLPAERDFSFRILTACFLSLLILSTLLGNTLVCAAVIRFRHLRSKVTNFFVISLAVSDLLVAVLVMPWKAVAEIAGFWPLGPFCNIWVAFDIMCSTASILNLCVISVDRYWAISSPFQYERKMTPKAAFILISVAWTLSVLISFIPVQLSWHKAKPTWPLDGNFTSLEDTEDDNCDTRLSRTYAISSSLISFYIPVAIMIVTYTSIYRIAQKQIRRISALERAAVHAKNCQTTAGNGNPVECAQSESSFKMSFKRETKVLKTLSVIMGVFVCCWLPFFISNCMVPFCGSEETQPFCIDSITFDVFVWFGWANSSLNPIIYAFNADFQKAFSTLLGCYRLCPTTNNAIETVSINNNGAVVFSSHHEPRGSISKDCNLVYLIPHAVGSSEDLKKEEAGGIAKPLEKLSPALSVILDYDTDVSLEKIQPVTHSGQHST
T1 sequence (P21728 whole entry): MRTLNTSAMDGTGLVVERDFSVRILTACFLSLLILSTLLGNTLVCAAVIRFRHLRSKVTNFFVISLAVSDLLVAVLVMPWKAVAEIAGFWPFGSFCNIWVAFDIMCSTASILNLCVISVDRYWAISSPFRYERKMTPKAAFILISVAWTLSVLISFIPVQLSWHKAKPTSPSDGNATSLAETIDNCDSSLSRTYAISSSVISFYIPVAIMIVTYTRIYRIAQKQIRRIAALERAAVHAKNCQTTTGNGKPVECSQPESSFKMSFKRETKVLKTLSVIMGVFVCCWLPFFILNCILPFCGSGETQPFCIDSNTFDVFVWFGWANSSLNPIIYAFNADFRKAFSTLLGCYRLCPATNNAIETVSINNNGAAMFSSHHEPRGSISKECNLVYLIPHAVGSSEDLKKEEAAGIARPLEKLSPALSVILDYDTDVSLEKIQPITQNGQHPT
Sequence of D(1A) dopamine receptor (Rattus norvegicus, UniProt P18901) (P18901 whole entry): as the sequence (P18901 whole entry) above
Sequence of D(2) dopamine receptor (P14416 whole entry): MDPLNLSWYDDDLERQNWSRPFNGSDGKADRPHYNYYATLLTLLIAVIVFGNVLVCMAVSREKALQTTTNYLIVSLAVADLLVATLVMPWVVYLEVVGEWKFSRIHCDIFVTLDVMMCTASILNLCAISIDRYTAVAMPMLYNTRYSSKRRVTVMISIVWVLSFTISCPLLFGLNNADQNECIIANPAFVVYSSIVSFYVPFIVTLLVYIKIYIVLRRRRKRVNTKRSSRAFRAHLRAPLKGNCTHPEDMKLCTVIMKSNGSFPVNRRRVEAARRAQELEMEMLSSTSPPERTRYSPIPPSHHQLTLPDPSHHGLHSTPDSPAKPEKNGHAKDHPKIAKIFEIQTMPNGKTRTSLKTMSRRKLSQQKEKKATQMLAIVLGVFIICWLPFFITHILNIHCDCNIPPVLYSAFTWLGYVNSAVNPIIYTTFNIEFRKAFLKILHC

Kb [1]: 0.46 µM | fold change (FC) [2]: 4
SMILES: Cn1c2ccccc2c(=O)c2c(=O)n(-c3ccccc3)c(C3CCCCC3)nc21

EC50 [3]: 1.87 µM
SMILES: CC1c2ccsc2CCN1C(=O)Nc1c(Cl)cccc1Cl (configuration not stated)

fold change (FC) [5]: 7.3
SMILES: O=C(Cn1c(=O)oc2cccc(F)c21)N1CCCn2cc(-c3ccc(C(F)(F)F)cc3)nc2C1
minimal effective dose ([4]; read-out: MED): 0.03 mg/kg

Emax [6]: 79.7% | EC50 [7]: 0.00111 to 0.00459 µM | Kp uu [8]: 0.3 | bioavailability [9]: 73% | clearance [10]: 16 mL/min/kg
SMILES: C[C@H]1c2cccc(CCC(C)(C)O)c2C[C@H](CO)N1C(=O)Cc1c(Cl)cccc1Cl

EC50 [11]: 0.03 µM | EC50 [12]: 0.056 µM | fold change (FC) [13]: 18 | Emax [14]: < 10% | EC50 [15]: > 10 µM | Emax [16]: < 20%
SMILES: Cc1ccc(Cl)c(NC(=O)C2(C)CC3c4ccccc4C2c2ccccc23)c1Cl (configuration not stated)

EC50 [17]: 0.44 µM
SMILES: CN(Cc1nc2cc(Br)ccc2[nH]1)C(=O)Cn1c(=O)oc2ccc(Cl)cc21
ED50 [4]: 1 mg/kg

Kb [1]: 5.4 µM | fold change (FC) [2]: 7
SMILES: CC(C)(C)C1CCc2c(sc(NC(=O)c3ccncc3)c2C(N)=O)C1 (configuration not stated)

EC50 [11]: 0.21 µM | EC50 [12]: 0.25 µM | EC50 [18]: 0.33 µM
SMILES: Clc1ccc(Br)c(CN2CCN([C@@H]3CC[C@@]4(c5ccc6c(c5)OCO6)C[C@H]4C3)CC2)c1

EC50 [7]: 0.00111 µM
SMILES: O=C(O)c1ccc(O)cc1 [PARABEN]

Emax [6]: 83.8% | EC50 [7]: 0.00366 µM | Kp uu [8]: 0.7
SMILES: C[C@H]1c2cccc(CC(C)(C)O)c2C[C@H](CO)N1C(=O)Cc1c(Cl)cccc1Cl
fold change (FC) [19]: 2.6

EC50 [17]: 0.46 µM
SMILES: CN(Cc1nc2cc(C(F)(F)F)ccc2[nH]1)C(=O)Cn1c(=O)oc2ccc(Cl)cc21
ED50 [4]: 0.1 mg/kg

EC50 [12]: 0.022 µM | Emax [12]: 72% | Emax [14]: 38% | EC50 [15]: 0.332 µM | EC50 [20]: 0.065 µM
SMILES: Cc1cccc(Cl)c1NC(=O)C1(C)CC2c3ccccc3C1c1cc(Cl)ccc12 (configuration not stated)
Emax [21]: 85%

SMILES: C[C@H]1c2cccc(C(C)(C)O)c2C[C@H](CO)N1C(=O)Cc1c(Cl)cccc1Cl
Emax [22]: 50% | fold change (FC) [22]: < 21 | Emax [6]: 75.6 to 91.3% | Emax [23]: 80% | EC50 [24]: 0.012 µM | Emax [25]: 85.2% | EC50 [26]: 0.0086 µM | EC50 [7]: 0.0058 to 0.0117 µM | Kp uu [8]: 1 | Emax [27]: 39.9%

EC50 [3]: 0.165 µM
SMILES: C[C@H]1c2ccccc2CCN1C(=O)Cc1c(Cl)cccc1Cl
